Laboratory results as given in PubChem BioAssay AID328 (DTP/NCI, 2004).
Values joined by “and” are separate entries in the source; they are usually repeats but may differ in a detail not shown here. Equal values may be shown once. Toxic doses and inconclusive results are not listed. The calls were made as follows: active = survival T/C of 150% or more; inactive = T/C below 125% in these data.

Tested on: BDF1 mice, P388 leukemia ip, median survival T/C
Assay: NCI In Vivo Anticancer Drug Screen. Data for tumor model P388 Leukemia (intraperitoneal) in B6D2F1 (BDF1) mice
Settings: endpoint: median survival time, higher = longer survival
In short: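 Compound-treated tumour-bearing mice were compared with vehicle-treated controls. Survival was recorded, and the value is the treated-group measurement divided by the control-group measurement (T/C).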

[1] = dose: 50.0 mg/kg/injection, schedule: Q01DX009 (ip), vehicle: Klucel (hydroxypropylcellulose) (HPC)
[2] = dose: 6.25 mg/kg/injection, schedule: Q01DX009 (ip), vehicle: water
[3] = dose: 12.5 mg/kg/injection, schedule: Q01DX009 (ip), vehicle: water
[4] = dose: 25.0 mg/kg/injection, schedule: Q01DX009 (ip), vehicle: saline
[5] = dose: 50.0 mg/kg/injection, schedule: Q01DX009 (ip), vehicle: saline
[6] = dose: 50.0 mg/kg/injection, schedule: Q01DX009 (ip), vehicle: saline with Tween-80
[7] = dose: 100.0 mg/kg/injection, schedule: Q01DX009 (ip), vehicle: saline with Tween-80
[8] = dose: 200.0 mg/kg/injection, schedule: Q01DX009 (ip), vehicle: saline with Tween-80
[9] = dose: 12.5 mg/kg/injection, schedule: Q04DX003 (ip), vehicle: saline
[10] = dose: 50.0 mg/kg/injection, schedule: Q04DX003 (ip), vehicle: saline

Measured: T/C

COc1ccc2c3c(ccc2c1)C1=C(C(=O)O)CC(=O)C1(C)CC3 (stereo not drawn)
inactive: dose: 100.0 mg/kg/injection, schedule: Q04DX003 (sc), vehicle: steriod suspending solution 108 % of control | dose: 200.0 mg/kg/injection, schedule: Q04DX003 (sc), vehicle: steriod suspending solution 100 % of control | dose: 400.0 mg/kg/injection, schedule: Q04DX003 (sc), vehicle: steriod suspending solution 95 % of control

Cc1ccc(NCc2nc(N)nc(Nc3ccc(C)cc3)n2)cc1
inactive: dose: 50.0 mg/kg/injection, schedule: Q01DX001 (ip), vehicle: saline sonified 100 % of control | dose: 100.0 mg/kg/injection, schedule: Q01DX001 (ip), vehicle: saline sonified 100 % of control | dose: 200.0 mg/kg/injection, schedule: Q01DX001 (ip), vehicle: saline sonified 90 % of control

CC(=O)NNc1ccccc1
inactive: dose: 12.5 mg/kg/injection, schedule: Q01DX009 (ip), vehicle: Klucel (hydroxypropylcellulose) (HPC) 109 % of control | dose: 25.0 mg/kg/injection, schedule: Q01DX009 (ip), vehicle: Klucel (hydroxypropylcellulose) (HPC) 109 % of control | [1] 100 % of control | dose: 200.0 mg/kg/injection, schedule: Q04DX003 (ip), vehicle: Klucel (hydroxypropylcellulose) (HPC) 117 % of control

COc1cc(O)c2c(c1)C1=C(C)C(C)(O)OC1=CC2=O (stereo not drawn)
inactive: dose: 100.0 mg/kg/injection, schedule: Q01DX001 (ip), vehicle: Klucel (hydroxypropylcellulose) (HPC) 95 % of control | dose: 200.0 mg/kg/injection, schedule: Q01DX001 (ip), vehicle: Klucel (hydroxypropylcellulose) (HPC) 100 % of control | dose: 400.0 mg/kg/injection, schedule: Q01DX001 (ip), vehicle: Klucel (hydroxypropylcellulose) (HPC) 86 % of control

O=C(O)C1(C(=O)O)CCC2(CCCCC2)CC1
inactive: dose: 3.12 mg/kg/injection, schedule: Q04DX003 (ip), vehicle: water 98 % of control | [2] 110 % of control | dose: 6.25 mg/kg/injection, schedule: Q04DX003 (ip), vehicle: water 102 % of control | [3] 94 % of control | dose: 12.5 mg/kg/injection, schedule: Q04DX003 (ip), vehicle: water 102 % of control | dose: 25.0 mg/kg/injection, schedule: Q01DX009 (ip), vehicle: water 103 % of control | dose: 25.0 mg/kg/injection, schedule: Q04DX003 (ip), vehicle: water 101 % of control and 116 % of control | dose: 50.0 mg/kg/injection, schedule: Q01DX009 (ip), vehicle: water 100 % of control | dose: 50.0 mg/kg/injection, schedule: Q04DX003 (ip), vehicle: water 101 % of control and 103 % of control | dose: 100.0 mg/kg/injection, schedule: Q04DX003 (ip), vehicle: water 90 % of control

FC(F)(F)c1ccc2c(c1)N(CCCN1CCN(CCN3CCCCC3)CC1)c1ccccc1S2
inactive: dose: 12.5 mg/kg/injection, schedule: Q01DX009 (ip), vehicle: saline 118 % of control | [4] 115 % of control | [5] 86 % of control

C=CCN(CC=C)C(=O)CCN1CC1
inactive: dose: 1.25 mg/kg/injection, schedule: Q01DX009 (ip), vehicle: saline 95 % of control | dose: 2.5 mg/kg/injection, schedule: Q01DX009 (ip), vehicle: saline 100 % of control | dose: 5.0 mg/kg/injection, schedule: Q01DX009 (ip), vehicle: saline 112 % of control

O=C1C(=O)c2ccccc2-c2ccccc21.O=C1C(=O)c2ccccc2-c2ccccc21.[Hg]
inactive: dose: 1.5 mg/kg/injection, schedule: Q01DX009 (ip), vehicle: saline with Tween-80 110 % of control | dose: 2.6 mg/kg/injection, schedule: Q01DX009 (ip), vehicle: saline with Tween-80 100 % of control | dose: 3.0 mg/kg/injection, schedule: Q01DX009 (ip), vehicle: saline with Tween-80 112 % of control | dose: 4.0 mg/kg/injection, schedule: Q01DX009 (ip), vehicle: saline with Tween-80 110 % of control | dose: 6.0 mg/kg/injection, schedule: Q01DX009 (ip), vehicle: saline with Tween-80 116 % of control | dose: 9.0 mg/kg/injection, schedule: Q01DX009 (ip), vehicle: saline with Tween-80 110 % of control

CC(=N\O)/C(C)=N/O.CC(=N\O)/C(C)=N/O.CC1CC[N-]CC1.CC1CC[N-]CC1.CC1CC[N-]CC1.CC1CC[N-]CC1.[Cl][Rh][Cl].[Pt+2]
inactive: dose: 0.39 mg/kg/injection, schedule: Q01DX009 (ip), vehicle: water 110 % of control | dose: 0.78 mg/kg/injection, schedule: Q01DX009 (ip), vehicle: water 110 % of control | dose: 1.56 mg/kg/injection, schedule: Q01DX009 (ip), vehicle: water 98 % of control | [2] 94 % of control | [3] 99 % of control

CCP(=Nc1cc(C(c2ccccc2)(c2ccccc2)c2ccccc2)cc(C(C)(C)C)c1O)(c1ccccc1)c1ccccc1
inactive: [6] 107 % of control | [7] 116 % of control | [8] 89 % of control

CCCCCC(O)CCCCC
inactive: [7] 104 % of control | [8] 95 % of control

CCOC(=O)C(C(=O)OCC)C(=O)c1cc(-c2ccc(Cl)c(Cl)c2)nc2c(Cl)cc(Cl)cc12
inactive: [1] 100 % of control | dose: 200.0 mg/kg/injection, schedule: Q01DX009 (ip), vehicle: Klucel (hydroxypropylcellulose) (HPC) 91 % of control

O=S1(=O)C2CCCCC2(N2CCOCC2)C1c1ccccc1 (stereo not drawn)
inactive: dose: 100.0 mg/kg/injection, schedule: Q04DX003 (ip), vehicle: other 100 % of control | dose: 178.0 mg/kg/injection, schedule: Q04DX003 (ip), vehicle: other 109 % of control | dose: 200.0 mg/kg/injection, schedule: Q04DX003 (ip), vehicle: other 104 % of control | dose: 266.0 mg/kg/injection, schedule: Q04DX003 (ip), vehicle: other 104 % of control | dose: 400.0 mg/kg/injection, schedule: Q04DX003 (ip), vehicle: other 100 % of control

O=C1OC(=O)C2C3C=CC(C4C=CC43)C12 (stereo not drawn)
inactive: [9] 101 % of control | [4] 97 % of control | dose: 25.0 mg/kg/injection, schedule: Q04DX003 (ip), vehicle: saline 104 % of control | [5] 97 % of control | [10] 111 % of control and 124 % of control | dose: 100.0 mg/kg/injection, schedule: Q04DX003 (ip), vehicle: saline 92 % of control and 106 % of control | dose: 200.0 mg/kg/injection, schedule: Q01DX009 (ip), vehicle: saline 86 % of control | dose: 200.0 mg/kg/injection, schedule: Q04DX003 (ip), vehicle: saline 111 % of control and 119 % of control | dose: 400.0 mg/kg/injection, schedule: Q01DX009 (ip), vehicle: saline 100 % of control | dose: 400.0 mg/kg/injection, schedule: Q04DX003 (ip), vehicle: saline 109 % of control

CCOCCN1CCN(CCCN2c3ccccc3Sc3ccc(C(F)(F)F)cc32)CC1
inactive: dose: 6.25 mg/kg/injection, schedule: Q04DX003 (ip), vehicle: saline 107 % of control and 112 % of control | [9] 116 % of control | [10] 101 % of control

CS(=O)C/C(=C/CCCl)c1cccs1 (stereo not drawn)
inactive: [6] 105 % of control | [7] 94 % of control | [8] 105 % of control
